Literature values in patent US6849617B2, “Tissue factor antagonists and methods of use thereof” (Sunol Molecular Corporation, priority 1999, dated 2005).

Target: tissue factor (TF) (Homo sapiens, UniProt P13726)
Conditions: as disclosed in U.S. application Ser. No. 09/406269

Sequence of tissue factor (TF) (P13726 33-295): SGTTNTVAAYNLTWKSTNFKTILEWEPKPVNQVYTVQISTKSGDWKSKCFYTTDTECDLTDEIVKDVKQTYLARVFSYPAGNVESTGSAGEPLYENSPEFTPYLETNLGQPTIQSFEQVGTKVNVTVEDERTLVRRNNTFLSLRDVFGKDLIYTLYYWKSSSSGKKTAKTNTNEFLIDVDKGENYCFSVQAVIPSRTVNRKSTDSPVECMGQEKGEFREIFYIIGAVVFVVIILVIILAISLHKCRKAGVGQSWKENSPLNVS

TF antagonist activity: effective TF antagonist
SMILES: NCCCC(O)(P(=O)(O)O)P(=O)(O)O [alendronic acid]
